Measurements reported in patent US20220159969A1, “COMPOSITION AND METHOD FOR ENHANCING SPORE GERMINATION AND BIOLOGICAL EFFICACY” (priority 2019, published 2022).

How the values were obtained:
Format in all cases: in vivo
Botrytis cinerea = experiment: Greenhouse control of Botrytis cinerea on tomato plants (Example 2); details: Prestop® 0.003% combined with glycine betaine 0.05% or 0.2%, 5 days, necrotic area width, FIG. 3
Method: Botrytis cinerea was grown on potato dextrose broth for 1 to 2 weeks without shaking. The resulting mycelial and spores were recovered to produce a liquid inoculum.
Tomato plants, variety Admiro (stage: 3-leaf), were sprayed with the B. cinerea inoculum (5000 sp/ml) then allowed to dry. Then, the treatments were applied by spraying the inoculated tomato plants.
The following treatments were tested (9 repetitions): (T1) Prestop® (C. rosea f. catenulatum J1446) 0.003%; (T2) Prestop® (C. rosea f. catenulatum J1446) 0.003%+glycine betaine (Intracell®, Lallemand) 0.05%; (T3) Prestop® (C. rosea f. catenulatum J1446) 0.003%+glycine betaine (Intracell®, Lallemand) 0.2%; (T4) glycine betaine (Intracell®, Lallemand) 0.2% and (T5) water.
Colby's equation was used to determine the effects expected from the components, as described above. The results were measured at 5 days after the application of the components.

[1] = test system: C. rosea f. catenulata J1446 spores; experiment: Percent germination of C. rosea f. catenulata J1446 on strawberry leaf discs; details: after 24 h on strawberry leaf discs; germinant added to Prestop® 0.025% (glycine betaine 0.06%/0.6%, yeast extract 0.04%/0.2%) vs Prestop® alone; FIG. 1
Method: (§1) Young strawberry plants (Fragaria×ananassa; “Merced” variety) were allowed to grow at least a week before plants were selected for experiments by healthy appearance and having large leaves facing upwards. Spore counts for C. rosea f. catenulata J1446 in the package of Prestop WG used were calculated via haemocytometer to be 1.4×10^10 spores/g and viability of the spores was checked using the MPN (most probably number) method and C. rosea f. catenulata J1446 was calculated to be 3×10^9 CFU/g. […] On average, 0.5 ml of treatment was calculated to be applied per plant. […] The number of spores obtained from each slip was counted using a hemocytometer to determine deposition rate. […]
On the same day, after spraying, two 6 mm leaf discs were cut using a sterilized staples hole punch from two different leaves per plant from five sprayed strawberry plants per treatment group per time period (6, 7, 8 and 24 h) and then dyed with 5 ul lactophenol cotton blue. […] Three viewing areas were chosen at random on each leaf disc and 100 spores were counted: the number that germinated (germ tubes visible at twice the length of the spore) out of that 100 was recorded. Average germination percentages were analyzed per treatment group and per time period.
Data for percent germination assays on strawberry leaves was normal when the distribution was analyzed for both greenhouse and environmental chamber studies. […]

[2] = test system: apple scab (Venturia inaequalis); experiment: Apple scab foliar symptoms on potted Gala apple trees (Example 6)
Method: The trial was carried out on potted trees of the Gala variety. Six trees per treatment were reserved for this test.
Two application strategies were tested: (a) one application four days before pathogen inoculation; and (b) a first application four days before pathogen inoculation and a second application after pathogen inoculation when a cumulative of 300° C./hour was reached after the inoculation.
A solution of conidia of V. inaequalis was prepared from 2018 scabbed leaves stored in the freezer. The trees were kept under fog for at least one hour before contamination and then at least 12 hours afterwards. The duration was adapted according to ambient temperature and humidity. The spray volume was defined after a blank test to cover sufficient vegetation without reaching the runoff point (between 30 and 50 mL/tree). The treatments were applied using a hand-held sprayer and carried out four days before inoculation with the pathogen (strategies (a) and (b)) and within 300° C./H after inoculation for strategy (2) only.
The frequency and intensity of foliar symptoms of scab were observed. Observation was carried out four to five days after the start of the first spots, using a 0 to 4 rating scale. Trees were scored individually and were made on all the leaves of each tree.

[3] = test system: C. rosea f. catenulata J1446; experiment: Hyphal growth of C. rosea f. catenulata J1446 from strawberry leaf discs onto agar plates (greenhouse); details: discs cut 1, 2, 3, 6 days after greenhouse incubation, growth on plate 6 days; germinant added to Prestop® 0.025%; FIG. 2
Method: as §1
Two 6 mm leaf discs were cut using a sterilized staples hole punch from two different leaves per plant from five sprayed plants per treatment per time period (1, 2, 3, and 6 days after spraying) and placed adaxial side downwards onto paraquat-chloramphenicol agar (PCA) medium (0.1 mL paraquat, 200 mg chloramphenicol, and 12 g agar per liter of water). […] Growth around the leaf disc was measured with a ruler and recorded as average diameter of growth per day. […] Averages in treatments were analyzed.
Data for growth bioassays from 1, 2, 3, and 6 days of greenhouse incubation were all normal when distribution was analysed. […] Multiple comparisons of the mean (alpha=0.05) were analysed using a Tukey post hoc test.

Compound: C[N+](C)(C)CC(=O)[O-] [glycine betaine]
- efficacy of Prestop® to control B. cinerea (Botrytis cinerea): increased
- percentage of spore germination of C. rosea J1446 [1]: increased
- Frequency of foliar symptoms of scab ([2]; one application four days before inoculation + a second application after inoculation when a cumulative of 300° C./hour was reached): 58.5%
- Frequency of foliar symptoms of scab ([2]; one application four days before inoculation with the pathogen): 59.6%
- colonization of leaf discs by C. rosea J1446 [3]: significantly increased
